{"source": "patent US20120245213A1", "about": "“HUMAN TYPE I TASTE RECEPTOR SUBUNIT 3 MODULATORS AND METHODS OF USING SAME” (priority 2009, published 2012)", "key": {"human T1R2+T1R3 receptor": {"molecular_target": "T1, human T1R2+T1R3 receptor (Homo sapiens, UniProt Q7RTX0)", "T1 construct": "expressed in transfected cells; host or cells: HEK293E", "T1 sequence (Q7RTX0 21-852)": "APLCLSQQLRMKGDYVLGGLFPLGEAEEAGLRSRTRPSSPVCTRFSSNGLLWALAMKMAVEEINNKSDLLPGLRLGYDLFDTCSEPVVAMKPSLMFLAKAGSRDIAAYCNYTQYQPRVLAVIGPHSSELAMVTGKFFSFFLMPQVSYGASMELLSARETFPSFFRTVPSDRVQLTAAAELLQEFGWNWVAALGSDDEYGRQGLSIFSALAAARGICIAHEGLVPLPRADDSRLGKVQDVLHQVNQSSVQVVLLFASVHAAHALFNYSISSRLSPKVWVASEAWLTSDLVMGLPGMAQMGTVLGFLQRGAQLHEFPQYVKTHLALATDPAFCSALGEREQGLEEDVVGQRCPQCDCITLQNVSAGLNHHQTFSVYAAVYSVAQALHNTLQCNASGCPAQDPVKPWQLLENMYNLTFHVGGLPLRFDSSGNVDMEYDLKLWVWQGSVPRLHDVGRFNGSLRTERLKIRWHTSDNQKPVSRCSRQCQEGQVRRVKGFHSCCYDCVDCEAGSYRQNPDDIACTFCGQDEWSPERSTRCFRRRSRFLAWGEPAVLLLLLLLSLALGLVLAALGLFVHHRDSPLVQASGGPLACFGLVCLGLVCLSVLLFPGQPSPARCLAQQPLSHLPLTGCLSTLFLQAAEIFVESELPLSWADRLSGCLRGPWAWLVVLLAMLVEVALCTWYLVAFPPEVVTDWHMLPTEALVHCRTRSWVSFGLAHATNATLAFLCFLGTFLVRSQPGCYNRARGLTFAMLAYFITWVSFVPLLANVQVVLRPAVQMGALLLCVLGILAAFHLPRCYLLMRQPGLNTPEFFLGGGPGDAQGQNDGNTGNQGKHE", "T1 sequence (Q8TE23 20-839 partner)": "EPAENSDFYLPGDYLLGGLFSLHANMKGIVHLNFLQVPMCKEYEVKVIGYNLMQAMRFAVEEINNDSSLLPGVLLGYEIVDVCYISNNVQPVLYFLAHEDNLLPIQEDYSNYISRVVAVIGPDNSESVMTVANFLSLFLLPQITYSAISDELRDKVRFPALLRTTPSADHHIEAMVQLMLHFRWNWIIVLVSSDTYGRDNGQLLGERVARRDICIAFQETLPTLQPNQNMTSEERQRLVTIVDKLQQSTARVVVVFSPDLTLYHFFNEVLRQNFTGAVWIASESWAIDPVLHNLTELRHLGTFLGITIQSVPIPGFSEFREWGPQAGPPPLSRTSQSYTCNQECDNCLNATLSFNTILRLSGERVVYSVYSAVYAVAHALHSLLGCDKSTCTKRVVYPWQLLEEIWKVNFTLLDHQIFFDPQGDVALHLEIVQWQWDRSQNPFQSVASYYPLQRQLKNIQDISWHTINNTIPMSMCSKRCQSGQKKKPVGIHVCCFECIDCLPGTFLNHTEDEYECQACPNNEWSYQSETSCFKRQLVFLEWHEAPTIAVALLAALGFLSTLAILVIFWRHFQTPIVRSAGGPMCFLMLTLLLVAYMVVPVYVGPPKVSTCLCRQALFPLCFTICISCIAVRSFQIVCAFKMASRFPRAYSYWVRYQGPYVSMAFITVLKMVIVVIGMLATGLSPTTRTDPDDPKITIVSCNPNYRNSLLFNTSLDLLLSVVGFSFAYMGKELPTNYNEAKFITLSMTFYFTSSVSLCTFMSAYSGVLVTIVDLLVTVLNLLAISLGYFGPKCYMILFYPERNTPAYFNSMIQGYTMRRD", "test": "Heterologous calcium mobilization assay, HEK293 cells expressing human sweet receptor", "type": "cell-based", "settings": "for inhibition of the human sweet receptor: at up to 500 μM", "description": "T1R2+T1R3 subunits were transfected into HEK cells along with the promiscuous Gq-type protein G16-gust44. Activation of receptors by agonists was followed using the calcium-sensitive fluorescent dye fluo-4-AM in a 96-well format with the fluorescent microplate reader Flexstation II (Molecular Devices). Inhibitors were added concomitantly with the sweetener sucralose at 2.5 mM (saturating concentration). […] Fluorescence signal (F) is expressed in arbitrary units (AU). The down arrow indicates the injection of the sweetener-inhibitors mixture on the cells. […] Peak calcium signal is expressed as ΔF/F in %, normalized to control (sucralose alone). Data are from a representative experiment, means±SD, done in quadruplicate.\nHEK293E cells were cultured at 37° C. in Optimem GlutaMAX culture medium (Invitrogen) supplemented with 4% dialyzed fetal bovine serum. Cells were transfected with the DNA constructs using lipofectamine-2000 according to the manufacturer's protocol (Invitrogen). Briefly, cells were seeded onto 96-well poly-D-lysine plates (Corning) at about 12,500 cells/well 18 hours prior to transfection; and co-transfected with plasmid DNAs encoding […] and G 16-gust44 (0.1 μg total DNA/well; 0.2 μl lipofectamine/well). After 24 hours, the transfected cells were washed once with the culture medium and incubated for another 24 hours. The cells were washed with HBSS supplemented with 20 mM Hepes (HBSS-H), loaded with 3 μM Fluo-4AM (Molecular Probe) in HBSS-H buffer, incubated for 1.5 hours at room temperature, and then washed with HBSS-H and maintained in HBSS-H at 25° C. […] Sweeteners were added 30 seconds after the start of the scan at 2× concentration in 50 μl of HBSS-H while monitoring fluorescence for an additional 200 seconds at 2 seconds intervals. Where tested, inhibitors were added along with sweeteners to the cells.\nThe data were expressed as the mean±S.E. of quadruplicate or sextuplicate of the F/F values, or were normalized as described. The bar graph and curving-fitting routines were carried out using Graph-Pad Prism 3.0 (GraphPad Software, Inc.).\nTo determine if phenoxy-herbicides and fibrates had inhibitory properties, a cell-based assay with HEK 293 cells expressing the human sweet receptor composed of hT1R3 and hT1R2 was used.\nIC50s are means±SD from at least 3 independent experiments."}, "[1]": {"test_system": "sweet and umami (MSG) taste", "test": "Psychophysical self-experimentation on taste", "type": "in vivo, human", "settings": "self-experimentation by one of the inventors", "source_text": "T1R3's role as a critical component of sweet and umami receptors in taste cells is well established (Zhao, supra; and Max, supra). T1R3, like gustducin, has also been implicated in glucose-sensing functions of gut endocrine cells and thereby in glucose homeostasis (Jang, supra)."}, "[2]": {"settings": "hT1R2+hT1R3 activated by 2.5 mM sucralose, mean (SD), at least 3 independent experiments, read-out: IC50 (μM (SD))"}, "[3]": {"settings": "HEK 293 cells, hT1R2+hT1R3, 2.5 mM sucralose, read-out: IC50, inhibition of human sweet receptor"}}, "note": "Where two headings read alike, the source gives them in different places.", "data": [{"compound": "O=C(O)CCc1c[nH]c2ccccc12", "note": "[IPA, 3-(1H-indol-3-yl)propanoic acid]", "values": [{"measurement": "inhibition of the human sweet receptor", "setting": "human T1R2+T1R3 receptor", "value": "did not inhibit"}, {"measurement": "IC50", "setting": "human T1R2+T1R3 receptor; [2]", "value": "> 1000", "unit": "µM"}]}, {"compound": "O=C(O)Cc1c[nH]c2ccccc12", "note": "[IAA, 1H-indol-3-ylacetic acid]", "values": [{"measurement": "inhibition of the human sweet receptor", "setting": "human T1R2+T1R3 receptor", "value": "did not inhibit"}, {"measurement": "IC50", "setting": "human T1R2+T1R3 receptor; [2]", "value": "> 1000", "unit": "µM"}]}, {"compound": "O=C(O)Cc1ccccc1", "note": "[PAA, phenylacetic acid]", "values": [{"measurement": "IC50", "setting": "human T1R2+T1R3 receptor", "value": "≥ 142", "unit": "µM"}]}, {"compound": "O=C(O)COc1ccc(Cl)cc1", "note": "[4-CPA, (4-chlorophenoxy)acetic acid]", "values": [{"measurement": "IC50", "setting": "human T1R2+T1R3 receptor", "value": "≥ 142", "unit": "µM"}]}, {"compound": "Cc1ccc(C)c(OCCCC(C)(C)C(=O)O)c1", "note": "[Gemfibrozil, 5-(2,5-dimethylphenoxy)-2,2-dimethylpentanoic acid, reference compound]", "values": [{"measurement": "IC50", "setting": "human T1R2+T1R3 receptor; [3]", "value": "30 to 100", "unit": "µM"}]}, {"compound": "CC(C)(Oc1ccc(CCNC(=O)c2ccc(Cl)cc2)cc1)C(=O)O", "note": "[Bezafibric acid, 2-[4-(2-{[(4-chlorophenyl)carbonyl]amino}ethyl)phenoxy]-2-methylpropanoic acid, reference compound]", "values": [{"measurement": "IC50", "setting": "human T1R2+T1R3 receptor; [3]", "value": "30 to 100", "unit": "µM"}]}, {"compound": "O=C(O)Cc1cccc2ccccc12", "note": "[NAA, naphthalen-1-ylacetic acid]", "values": [{"measurement": "IC50", "setting": "human T1R2+T1R3 receptor; [3]", "value": "≥ 142", "unit": "µM"}]}, {"compound": "CC(C)(Oc1ccc(Cl)cc1)C(=O)O", "note": "[Clofibric acid, 2-(4-chlorophenoxy)-2-methylpropanoic acid]", "values": [{"measurement": "inhibition of sweet taste in vivo", "setting": "[1]", "value": "potently inhibited"}, {"measurement": "inhibition of umami (MSG) taste in vivo", "setting": "[1]", "value": "potently inhibited"}]}, {"compound": "Cc1cc(Cl)ccc1OC(C)C(=O)O", "note": "(centres unmarked) [MCPP, 2-(4-chloro-2-methylphenoxy) propanoic acid]", "values": [{"measurement": "IC50", "setting": "human T1R2+T1R3 receptor", "value": "5 to 12", "unit": "µM"}]}, {"compound": "O=C(O)CCCc1c[nH]c2ccccc12", "note": "[IBA, 4-(1H-indol-3-yl)butanoic acid]", "values": [{"measurement": "inhibition of the human sweet receptor", "setting": "human T1R2+T1R3 receptor", "value": "did not inhibit"}]}, {"compound": "CC(Oc1cc(Cl)c(Cl)cc1Cl)C(=O)O", "note": "(centres unmarked) [2,4,5TPP, 2-(2,4,5-trichlorophenoxy) propanoic acid]", "values": [{"measurement": "IC50", "setting": "human T1R2+T1R3 receptor", "value": "5 to 12", "unit": "µM"}]}]}
